30 compounds from patent publication US20250325534A1, “MICROBIOCIDAL TETRAHYDROISOQUINOLINE DERIVATIVES” (SYNGENTA CROP PROTECTION AG, priority 2021, published 2025) can be followed below.

The test system of this assay is Mycosphaerella graminicola. Nature of the assay: Mycosphaerella graminicola (Septoria tritici) / liquid culture (Septoria blotch). To be noted: Zymoseptoria tritici, 96 h, photometrically 4-5 days after application, read-out: control of Mycosphaerella graminicola. Format: cell-based. The procedure:
Example B19: Mycosphaerella graminicola (Septoria tritici)/Liquid Culture (Septoria Blotch) Conidia of the fungus from cryogenic storage are directly mixed into a nutrient broth (potato dextrose broth). After placing a DMSO solution of test compound into a microtiter plate (96-well format), the nutrient broth containing the fungal spores is added. The test plates are incubated at 24° C. and the inhibition of growth is determined photometrically 4-5 days after application.

As for `COc1ccc2c(c1)[C@@H](c1cnn(C)c1)CN(C(=O)c1cc(-c3ccc(F)cc3F)on1)[C@@H]2C` (racemic) [Compound P-217, [5-(2,4-difluorophenyl)isoxazol-3-yl]-[rac-(1R,4S)-6-methoxy-1-methyl-4-(1-methylpyrazol-4-yl)-3,4-dihydro-1H-isoquinolin-2-yl]methanone], the inhibition of growth at 20 ppm is at least 80%.
`Cc1c([C@H]2CN(C(=O)c3cc(-c4ccc(F)cc4F)on3)[C@@H](C)c3ccccc32)cnn1C` (racemic) [Compound P-242, [5-(2,4-difluorophenyl)isoxazol-3-yl]-[rac-(1S,4S)-4-(1,5-dimethylpyrazol-4-yl)-1-methyl-3,4-dihydro-1H-isoquinolin-2-yl]methanone]: the inhibition of growth at 20 ppm was at least 80%.
Next, `C[C@H]1c2ccc(O)cc2[C@@H](c2cnn(C)c2)CN1C(=O)c1cc(-c2ccc(F)cc2F)on1` (racemic) [Compound P-245, [5-(2,4-difluorophenyl)isoxazol-3-yl]-[rac-(1S,4S)-6-hydroxy-1-methyl-4-(1-methylpyrazol-4-yl)-3,4-dihydro-1H-isoquinolin-2-yl]methanone]: at least 80%; `C[C@@H]1c2ccccc2[C@](C)(c2cnn(C)c2)CN1C(=O)c1cc(-c2ccc(F)cc2F)on1` (single isomer, unassigned) [Compound P-7]: at least 80%; `Cn1cc(C2CN(C(=O)c3cc(-c4ccc(S(C)(=O)=O)cc4F)on3)Cc3ccccc32)cn1` (stereo not drawn) [Compound P-20, [5-(2-fluoro-4-methylsulfonyl-phenyl)isoxazol-3-yl]-[4-(1-methylpyrazol-4-yl)-3,4-dihydro-1H-isoquinolin-2-yl]methanone]: at least 80%.
Then `Cn1cc(C2CN(C(=O)c3cc(-c4ccc(F)cc4F)on3)Cc3cc(-c4ccccc4)ccc32)cn1` (stereo not drawn) [Compound P-21, [5-(2,4-difluorophenyl)isoxazol-3-yl]-[4-(1-methylpyrazol-4-yl)-7-phenyl-3,4-dihydro-1H-isoquinolin-2-yl]methanone], with at least 80%; and `CC1c2ccc(OCC(F)(F)F)cc2C(C)(c2cnn(C)c2)CN1C(=O)c1cc(-c2ccccc2)on1` (stereo not drawn) [Compound P-27, [1,4-dimethyl-4-(1-methylpyrazol-4-yl)-6-(2,2,2-trifluoroethoxy)-1,3-dihydroisoquinolin-2-yl]-(5-phenylisoxazol-3-yl)methanone], with at least 80%.
Then `CC1c2ccc(OC(F)F)cc2C(C)(c2cnn(C)c2)CN1C(=O)c1cc(-c2ccccc2)on1` (stereo not drawn) [Compound P-28, [6-(difluoromethoxy)-1,4-dimethyl-4-(1-methylpyrazol-4-yl)-1,3-dihydroisoquinolin-2-yl]-(5-phenylisoxazol-3-yl)methanone], with at least 80%; and `CC1c2ccc(O)cc2C(C)(c2cnn(C)c2)CN1C(=O)c1cc(-c2ccccc2)on1` (stereo not drawn) [Compound P-29, [6-hydroxy-1,4-dimethyl-4-(1-methylpyrazol-4-yl)-1,3-dihydroisoquinolin-2-yl]-(5-phenylisoxazol-3-yl)methanone], with at least 80%.
Consider `CCC1c2ccccc2C(c2cnn(C)c2)CN1C(=O)c1cc(-c2ccccc2)on1` (stereo not drawn) [Compound P-37, [1-ethyl-4-(1-methylpyrazol-4-yl)-3,4-dihydro-1H-isoquinolin-2-yl]-(5-phenylisoxazol-3-yl)methanone], for which the inhibition of growth at 20 ppm is at least 80%.
Then `COC(=O)C1c2ccccc2C(c2cnn(C)c2)CN1C(=O)c1cc(-c2ccccc2)on1` (stereo not drawn) [Compound P-41, methyl 4-(1-methylpyrazol-4-yl)-2-(5-phenylisoxazole-3-carbonyl)-3,4-dihydro-1H-isoquinoline-1-carboxylate], with at least 80%; and `Cn1cc(C2CN(C(=O)c3cc(-c4ccc(F)cc4F)on3)C(c3ccccc3)c3ccccc32)cn1` (stereo not drawn) [Compound P-43, [5-(2,4-difluorophenyl)isoxazol-3-yl]-[4-(1-methylpyrazol-4-yl)-1-phenyl-3,4-dihydro-1H-isoquinolin-2-yl]methanone], with at least 80%; and `CCCC1c2ccccc2C(c2cnn(C)c2)CN1C(=O)c1cc(-c2ccc(F)cc2F)on1` (stereo not drawn) [Compound P-59, [5-(2,4-difluorophenyl)isoxazol-3-yl]-[4-(1-methylpyrazol-4-yl)-1-propyl-3,4-dihydro-1H-isoquinolin-2-yl]methanone], with at least 80%.
Then `COC(=O)c1ccc2c(c1)C(c1cnn(C)c1)CN(C(=O)c1cc(-c3ccc(F)cc3F)on1)C2` (stereo not drawn) [Compound P-61, methyl 2-[5-(2,4-difluorophenyl)isoxazole-3-carbonyl]-4-(1-methylpyrazol-4-yl)-3,4-dihydro-1H-isoquinoline-6-carboxylate], with at least 80%; and `COc1ccc2c(c1)C(c1cnn(C)c1)CN(C(=O)c1cc(-c3ccc(F)cc3F)on1)C2` (stereo not drawn) [Compound P-66, [5-(2,4-difluorophenyl)isoxazol-3-yl]-[6-methoxy-4-(1-methylpyrazol-4-yl)-3,4-dihydro-1H-isoquinolin-2-yl]methanone], with at least 80%.
Regarding `Cn1cc(C2CN(C(=O)c3ncc(C4CC4)o3)Cc3ccccc32)cn1` (stereo not drawn) [Compound P-68, (5-cyclopropyloxazol-2-yl)-[4-(1-methylpyrazol-4-yl)-3,4-dihydro-1H-isoquinolin-2-yl]methanone], the inhibition of growth at 20 ppm was at least 80%.
Then `Cn1cc(C2CN(C(=O)c3coc(-c4ccc(F)cc4)n3)Cc3ccccc32)cn1` (stereo not drawn) [Compound P-69, [2-(4-fluorophenyl)oxazol-4-yl]-[4-(1-methylpyrazol-4-yl)-3,4-dihydro-1H-isoquinolin-2-yl]methanone], with at least 80%; and `Cn1cc(C2CN(C(=O)c3cc(C(C)(C)C)no3)Cc3ccccc32)cn1` (stereo not drawn) [Compound P-83, (3-tert-butylisoxazol-5-yl)-[4-(1-methylpyrazol-4-yl)-3,4-dihydro-1H-isoquinolin-2-yl]methanone], with at least 80%.
As to `CCCc1cc(C(=O)N2Cc3ccccc3C(c3cnn(C)c3)C2)no1` (stereo not drawn) [Compound P-84, [4-(1-methylpyrazol-4-yl)-3,4-dihydro-1H-isoquinolin-2-yl]-(5-propylisoxazol-3-yl)methanone], the inhibition of growth at 20 ppm is at least 80%.
Then `CCC(C)c1cc(C(=O)N2Cc3ccccc3C(c3cnn(C)c3)C2)on1` (stereo not drawn) [Compound P-88, [4-(1-methylpyrazol-4-yl)-3,4-dihydro-1H-isoquinolin-2-yl]-(3-sec-butylisoxazol-5-yl)methanone], with at least 80%; and `Cn1cc(C2CN(C(=O)c3noc(-c4cc(F)ccc4F)n3)Cc3ccccc32)cn1` (stereo not drawn) [Compound P-90, [5-(2,5-difluorophenyl)-1,2,4-oxadiazol-3-yl]-[4-(1-methylpyrazol-4-yl)-3,4-dihydro-1H-isoquinolin-2-yl]methanone], with at least 80%; and `Cn1cc(C2CN(C(=O)c3cc(-c4ccccc4)on3)Cc3cc(C(F)(F)F)ccc32)cn1` (stereo not drawn) [Compound P-103, [4-(1-methylpyrazol-4-yl)-7-(trifluoromethyl)-3,4-dihydro-1H-isoquinolin-2-yl]-(5-phenylisoxazol-3-yl)methanone], with at least 80%.
On to `Cn1cc(C2CN(C(=O)c3cc(-c4ccc(F)cc4F)on3)Cc3ccc(C(F)(F)F)cc32)cn1` (stereo not drawn) [Compound P-112, [5-(2,4-difluorophenyl)isoxazol-3-yl]-[4-(1-methylpyrazol-4-yl)-6-(trifluoromethyl)-3,4-dihydro-1H-isoquinolin-2-yl]methanone], for which the inhibition of growth at 20 ppm was at least 80%.
Then `Cc1nn(C)c(C)c1C1c2ccccc2CN(C(=O)c2cc(-c3ccc(F)cc3F)on2)C1C` (stereo not drawn) [Compound P-113, [5-(2,4-difluorophenyl)isoxazol-3-yl]-[3-methyl-4-(1,3,5-trimethylpyrazol-4-yl)-3,4-dihydro-1H-isoquinolin-2-yl]methanone], with at least 80%.
Next, `CCn1nc(C)c(C2CN(C(=O)c3cc(-c4ccc(F)cc4F)on3)Cc3ccccc32)c1C` (stereo not drawn) [Compound P-116, [5-(2,4-difluorophenyl)isoxazol-3-yl]-[4-(1-ethyl-3,5-dimethyl-pyrazol-4-yl)-3,4-dihydro-1H-isoquinolin-2-yl]methanone]: at least 80%; `C#CCn1cc(C2CN(C(=O)c3cc(-c4ccccc4)on3)Cc3ccccc32)cn1` (stereo not drawn) [Compound P-128, (5-phenylisoxazol-3-yl)-[4-(1-prop-2-ynylpyrazol-4-yl)-3,4-dihydro-1H-isoquinolin-2-yl]methanone]: at least 80%; `Cn1cc(C2CN(C(=O)c3cc(-c4c(F)cc(F)cc4F)no3)Cc3ccccc32)cn1` (stereo not drawn) [Compound P-129, [4-(1-methylpyrazol-4-yl)-3,4-dihydro-1H-isoquinolin-2-yl]-[3-(2,4,6-trifluorophenyl)isoxazol-5-yl]methanone]: at least 80%.
With `Cn1cc(C2CN(C(=O)c3cc(-c4ccc(F)c(F)c4F)on3)Cc3ccccc32)cn1` (stereo not drawn) [Compound P-144, [4-(1-methylpyrazol-4-yl)-3,4-dihydro-1H-isoquinolin-2-yl]-[5-(2,3,4-trifluorophenyl)isoxazol-3-yl]methanone], the inhibition of growth at 20 ppm is at least 80%.
Next, `Cn1cc(C2CN(C(=O)c3coc(-c4ccccc4)c3)Cc3ccccc32)cn1` (stereo not drawn) [Compound P-147, [4-(1-methylpyrazol-4-yl)-3,4-dihydro-1H-isoquinolin-2-yl]-(5-phenyl-3-furyl)methanone]: at least 80%.
As for `Cn1cc(C2CN(C(=O)c3cc(-c4cccc(F)c4F)on3)Cc3ccccc32)cn1` (stereo not drawn) [Compound P-150, [5-(2,3-difluorophenyl)isoxazol-3-yl]-[4-(1-methylpyrazol-4-yl)-3,4-dihydro-1H-isoquinolin-2-yl]methanone], the inhibition of growth at 20 ppm is at least 80%.
